Experimental data published in paper PMC9537572, “Elucidation of the binding mechanism of astragaloside IV derivative with human serum albumin and its cardiotoxicity in zebrafish embryos” (Frontiers in Pharmacology, 2022).
Several values for one entry are separate records, joined by “and”; a condition that tells them apart may be missing. Identical values can stand only once. Entries after “also recorded” stand apart in the source; their conditions may differ.

Legend:
HSA = HSA (Homo sapiens, UniProt P02768); experiment: Plasma protein binding rate by equilibrium dialysis and UHPLC-MS/MS; format: in vitro ADME
Protocol: The binding rate of AGS IV/LS-102 and HSA was determined using a slightly modified equilibrium dialysis method ([Metsu et al., 2020]). […] The stock solutions of HSA (0.5 ml) and drug group (0.5 ml) were placed in a dialysis membrane bag that was ligated at both ends and then immersed in a test tube filled with 50 ml of PBS solution for 72 h at 4 °C. After equilibrium, a 0.5-ml solution of outer dialysate and internal dialysate was collected into a 2-ml EP tube, and 10 µL IS (digoxin, 0.1 mg/ml) solution was added to each tube. Both samples were added to 1.5 ml of acetonitrile and vortexed for 3 min, and then the samples were separated via centrifugation at 18,000 × g for 20 min. The supernatants were transferred to another EP tube and dried under a nitrogen stream. The residue was redissolved in 1 ml methanol, sonicated for 2 min, vortexed for 3 min, and centrifuged at 18,000 × g for 10 min. The supernatant was filtered with a 0.22 µm microporous syringe filter in a 2 ml sample vial, and 1 µL was injected into the UHPLC-MS/MS system for analysis. The plasma protein binding rate was calculated according to the following formula ([Talbert et al., 2002]): Plasma binding rate=Internal drug concentration−External drug concentration/Initial drug concentration ×100%

zebrafish embryos [1] = experiment: Astemizole-induced cardiotoxicity in zebrafish embryos: heart rate and SV-BA spacing; format: in vivo; settings: 4 µM astemizole; for Heart rate (beats/min) (Mean±SE) / SV-BA spacing (µm) (Mean±SE): n = 10
Protocol: A total of 270 wild-type AB zebrafish at 3 dpf were randomly selected, and 30 zebrafish were plated in each well of a six-well plates. The concentrations of LS-102 were 27.8, 83.3 and 250 µg/ml, AGS IV was 250 µg/mL. A normal control group (fish culture water) and a 4 µM astemizole model control group were also established. Ten zebrafish were randomly selected from each group, and the heart rate and venous sinus-to-arterial bulb distance (SV-BA) of zebrafish were observed under a dissecting microscope after 2 h, 6 h and 24 h of LS-102 and AGS IV treatment. Images were collected by photographing, and the ameliorative effect of LS-102 and AGS IV on astemizole-induced cardiotoxicity in zebrafish was evaluated by the statistical significance of the heart rate and the SV-BA interval index.

zebrafish embryos [2] = experiment: Astemizole-induced toxicity in zebrafish heart development; format: in vivo; settings: for Mortality: cotreated with 4 µM astemizole 48 h from 2 hpf
Protocol: A total of 270 wild-type AB zebrafish at 2 h post-fertilization (2 hpf) were randomly selected, and 30 zebrafish were plated in each well of a six-well plates. The concentrations of LS-102 were 27.8, 83.3 and 250 µg/ml, while that of AGS IV was 250 µg/mL. A normal control group (fish culture water) and a 4 µM astemizole model control group were also established. After LS-102 and AGS IV were cotreated with astemizole for 48 h, zebrafish heart development was observed and photographed under a microscope to evaluate the ameliorative effect of LS-102 and AGS IV on astemizole-induced toxicity in zebrafish heart development.

zebrafish = experiment: Arachidonic acid-induced thrombosis in zebrafish; format: in vivo; settings: for Staining intensity of cardiac red blood cells (pixels) (mean ± se): 3 h pretreatment, arachidonic acid 1.5 h, n = 10; for Antithrombotic effect (%): vs. model group, arachidonic acid-induced thrombosis
Protocol: A total of 270 melanin allele mutant translucent albino strain zebrafish at 3 dpf were randomly selected, with 30 zebrafish per well in six-well plates. The concentrations of LS-102 were 6.25, 12.5, 25, 50, and 100 µg/ml, while that of AGS IV was 100 µg/ml, and the positive control drug aspirin was 25 µg/ml. After treatment with LS-102 and AGS IV for 3 h, arachidonic acid aqueous solution was administered for 1.5 h to induce a thrombosis model in zebrafish in all experimental groups except the normal group. After staining with o-anisidine, zebrafish were randomly selected from each experimental group and observed under a dissecting microscope and photographed. Data were collected to qualitatively evaluate thrombosis in zebrafish, and the intensity of cardiac erythrocyte staining (length of venous thrombus vs. number of cardiac erythrocytes) in zebrafish was analyzed and counted to establish, the preventive effect of LS-102 and AGS IV with aspirin on thrombosis in zebrafish. The formula was calculated as follows:
Thromboprophylactic effect (%) = S (drug administration group)−S (model group)/S (nomal control group)−S (model group)×100%

zebrafish embryos [3] = experiment: Maximum tolerated concentration of LS-102 in zebrafish; format: in vivo; settings: for Mortality: 3 dpf zebrafish, n=30; for Deaths: of 30 zebrafish
Protocol: Zebrafish embryos at 3 dpf were randomly selected and treated with LS-102 at concentrations of 1, 10, 100, 250 and 500 μg/ml in water, while the control group was left untreated. The mortality of zebrafish was recorded for each experimental group after 24 h of treatment.

mice = settings: even at high treatment doses, ref Qing et al., 2019, Sun et al.; cited from earlier work
[4] = 83.3 µg/mL, 4 µM astemizole, 48 h, n=30

Chain of HSA (P02768 25-609): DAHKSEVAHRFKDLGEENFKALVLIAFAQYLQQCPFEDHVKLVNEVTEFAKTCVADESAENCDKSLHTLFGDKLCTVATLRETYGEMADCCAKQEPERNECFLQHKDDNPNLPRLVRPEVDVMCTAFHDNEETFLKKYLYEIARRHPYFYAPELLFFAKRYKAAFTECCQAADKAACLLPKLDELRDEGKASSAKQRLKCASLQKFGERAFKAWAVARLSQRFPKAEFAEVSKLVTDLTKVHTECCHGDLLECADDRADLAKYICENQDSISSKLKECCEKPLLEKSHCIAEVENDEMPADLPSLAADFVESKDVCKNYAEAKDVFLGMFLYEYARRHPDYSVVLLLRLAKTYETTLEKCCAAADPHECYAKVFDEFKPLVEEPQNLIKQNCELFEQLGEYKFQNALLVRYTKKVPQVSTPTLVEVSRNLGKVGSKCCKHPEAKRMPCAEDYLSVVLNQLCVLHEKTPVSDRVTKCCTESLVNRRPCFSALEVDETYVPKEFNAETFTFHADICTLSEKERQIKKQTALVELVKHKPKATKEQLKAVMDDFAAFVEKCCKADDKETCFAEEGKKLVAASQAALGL

CC(C)(O)C1CCC(C)(C2C(O)CC3(C)C4CC(OC5OC(C(=O)O)C(O)C(O)C5O)C5C(C)(C)C(OC6OCC(O)C(O)C6O)CCC56CC46CCC23C)O1 (centres unmarked) [LS-102, astragalosidic acid]
Plasma protein binding rate, range over the concentrations (HSA; across the three concentrations (0.238-0.714 mg/ml)): 68.24%–69.35
fraction unbound at 72 h (HSA; human, plasma, across the three concentrations (0.238-0.714 mg/ml), read-out: Plasma protein binding rate, range over the concentrations): 0.306 to 0.331
fraction unbound at 72 h, 0.238 mg/ml (HSA; human, drug 0.238 mg/ml, equilibrium dialysis 72 h at 4 °C, n = 3, read-out: Protein binding rate (%, Mean±SD) (converted)): 0.318
fraction unbound at 72 h, 0.476 mg/ml (HSA; human, drug 0.476 mg/ml, equilibrium dialysis 72 h at 4 °C, n = 3, read-out: Protein binding rate (%, Mean±SD) (converted)): 0.306
fraction unbound at 72 h, 0.714 mg/ml (HSA; human, drug 0.714 mg/ml, equilibrium dialysis 72 h at 4 °C, n = 3, read-out: Protein binding rate (%, Mean±SD) (converted)): 0.314
Heart rate (beats/min) (Mean±SE) (zebrafish embryos [1]; 27.8 µg/ml, 2 h): 156 ± 1 beats/min
SV-BA spacing (µm) (Mean±SE) (zebrafish embryos [1]; 27.8 µg/ml, 2 h): 179 ± 7 µm
Heart rate (beats/min) (Mean±SE) (zebrafish embryos [1]; 27.8 µg/ml, 6 h): 158 ± 1 beats/min
SV-BA spacing (µm) (Mean±SE) (zebrafish embryos [1]; 27.8 µg/ml, 6 h): 204 ± 6 µm
Heart rate (beats/min) (Mean±SE) (zebrafish embryos [1]; 27.8 µg/ml, 24 h): 45 ± 23 beats/min
SV-BA spacing (µm) (Mean±SE) (zebrafish embryos [1]; 27.8 µg/ml, 24 h): 250 ± 6 µm
Heart rate (beats/min) (Mean±SE) (zebrafish embryos [1]; 83.3 µg/ml, 2 h): 157 ± 2 beats/min
SV-BA spacing (µm) (Mean±SE) (zebrafish embryos [1]; 83.3 µg/ml, 2 h): 157 ± 3 µm
Heart rate (beats/min) (Mean±SE) (zebrafish embryos [1]; 83.3 µg/ml, 6 h): 153 ± 1 beats/min
SV-BA spacing (µm) (Mean±SE) (zebrafish embryos [1]; 83.3 µg/ml, 6 h): 168 ± 4 µm
Heart rate (beats/min) (Mean±SE) (zebrafish embryos [1]; 83.3 µg/ml, 24 h): 128 ± 21 beats/min
SV-BA spacing (µm) (Mean±SE) (zebrafish embryos [1]; 83.3 µg/ml, 24 h): 228 ± 7 µm
Heart rate (beats/min) (Mean±SE) (zebrafish embryos [1]; 250 µg/ml, 2 h): 160 ± 1 beats/min
SV-BA spacing (µm) (Mean±SE) (zebrafish embryos [1]; 250 µg/ml, 2 h): 151 ± 3 µm
Heart rate (beats/min) (Mean±SE) (zebrafish embryos [1]; 250 µg/ml, 6 h): 167 ± 1 beats/min
SV-BA spacing (µm) (Mean±SE) (zebrafish embryos [1]; 250 µg/ml, 6 h): 158 ± 6 µm
Heart rate (beats/min) (Mean±SE) (zebrafish embryos [1]; 250 µg/ml, 24 h): 162 ± 7 beats/min
SV-BA spacing (µm) (Mean±SE) (zebrafish embryos [1]; 250 µg/ml, 24 h): 174 ± 9 µm
Effect on astemizole-induced heart rate slowing and SV-BA spacing increase (in words) (zebrafish embryos [1]; 2 h and 6 h, 27.8, 83.3 and 250 µg/ml): improved the slowed heart rate and increased the SV-BA spacing
Effect on astemizole-induced heart rate slowing and SV-BA spacing increase (in words) (zebrafish embryos [1]; 24 h): improved the slowed heart rate at 250 µg/ml and the increase in SV-BA spacing at 83.3 and 250 µg/ml
Mortality (zebrafish embryos [2]; 27.8 µg/mL, n=30): 0%
Phenotype: absence of blood flow (share of zebrafish) (zebrafish embryos [2]; [4]): 26.7%
Phenotype: pericardial oedema, venous sinus stasis (share of zebrafish) (zebrafish embryos [2]; [4]): 83.3%
Phenotype: slowed blood flow (share of zebrafish) (zebrafish embryos [2]; [4]): 56.7%
Mortality (zebrafish embryos [2]; 83.3 µg/mL, n=30): 0%
Phenotype (in words) (zebrafish embryos [2]; 250 µg/mL, 4 µM astemizole, 48 h, n=30): no significant toxicity; also recorded: No abnormalities seen
Mortality (zebrafish embryos [2]; 250 µg/mL, n=30): 30%
Effect on the developmental toxicity of zebrafish hearts induced by astemizole (in words) (zebrafish embryos [2]; 83.3 and 250 µg/ml, 4 µM astemizole, 48 h): ameliorating effect
Staining intensity of cardiac red blood cells (pixels) (mean ± se) (zebrafish; 6.25 µg/ml): 1280 pixels and 1280 ± 119 pixels
Antithrombotic effect (%) (zebrafish; 6.25 µg/ml): −13%
Staining intensity of cardiac red blood cells (pixels) (mean ± se) (zebrafish; 12.5 µg/ml): 1521 pixels and 1521 ± 72 pixels
Antithrombotic effect (%) (zebrafish; 12.5 µg/ml): 14%
Staining intensity of cardiac red blood cells (pixels) (mean ± se) (zebrafish; 25 µg/ml): 1597 pixels and 1597 ± 65 pixels
Antithrombotic effect (%) (zebrafish; 25 µg/ml): 22%
Staining intensity of cardiac red blood cells (pixels) (mean ± se) (zebrafish; 50 µg/ml): 1796 pixels and 1796 ± 54 pixels
Antithrombotic effect (%) (zebrafish; 50 µg/ml): 44%
Staining intensity of cardiac red blood cells (pixels) (mean ± se) (zebrafish; 100 µg/ml): 1950 pixels and 1950 ± 33 pixels
Antithrombotic effect (%) (zebrafish; 100 µg/ml): 61%
Mortality (zebrafish embryos [3]; 1 µg/mL, 24 h): 0%
Deaths (zebrafish embryos [3]; 1 µg/mL, 24 h): 0 tails
Mortality (zebrafish embryos [3]; 10 µg/mL, 24 h): 0%
Deaths (zebrafish embryos [3]; 10 µg/mL, 24 h): 0 tails
Mortality (zebrafish embryos [3]; 100 µg/mL, 24 h): 0%
Deaths (zebrafish embryos [3]; 100 µg/mL, 24 h): 0 tails
Mortality (zebrafish embryos [3]; 250 µg/mL, 24 h): 13.3%
Deaths (zebrafish embryos [3]; 250 µg/mL, 24 h): 4 tails
Mortality (zebrafish embryos [3]; 500 µg/mL, 24 h): 100%
Deaths (zebrafish embryos [3]; 500 µg/mL, 24 h): 30 tails
Mortality (in words) (zebrafish embryos [3]; concentrations ranging from 1 to 100 µg/ml, 24 h): no mortality
Maximum-tolerated concentration (MTC) (zebrafish embryos [3]; zebrafish 3 dpf, 24 h treatment): 100 µg/mL
Abnormalities or death in mice (in words) (mice): no abnormalities or death
